Data as given in ChEMBL document CHEMBL1134019, “Structure determination and comparison of BM567, a sulfonylurea, with terbogrel, two compounds with dual action, thromboxane receptor antagonism and thromboxane synthase inhibition” (Bioorg Med Chem Lett, 2001).

Tests used:
Thromboxane A2 receptor = target: T1, Thromboxane A2 receptor (Homo sapiens, UniProt P21731); experiment: In vitro inhibitory concentration of compound against thromboxane A2 receptor
T1 sequence (P21731 whole entry): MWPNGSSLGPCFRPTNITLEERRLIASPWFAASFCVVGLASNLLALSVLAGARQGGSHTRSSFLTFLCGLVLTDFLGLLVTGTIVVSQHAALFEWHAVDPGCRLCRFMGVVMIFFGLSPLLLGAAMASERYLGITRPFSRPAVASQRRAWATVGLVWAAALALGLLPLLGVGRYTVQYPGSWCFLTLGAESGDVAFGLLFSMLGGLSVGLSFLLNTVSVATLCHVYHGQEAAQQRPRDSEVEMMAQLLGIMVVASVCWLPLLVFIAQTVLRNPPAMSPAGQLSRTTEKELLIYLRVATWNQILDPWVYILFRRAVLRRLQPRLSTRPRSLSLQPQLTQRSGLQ

[1] = target: T2, Thromboxane-A synthase (Homo sapiens) (UniProt P24557); experiment: Percent inhibition against thromboxane A2 synthase by the compound at a concentration of 10e-6 M
T2 sequence (whole entry): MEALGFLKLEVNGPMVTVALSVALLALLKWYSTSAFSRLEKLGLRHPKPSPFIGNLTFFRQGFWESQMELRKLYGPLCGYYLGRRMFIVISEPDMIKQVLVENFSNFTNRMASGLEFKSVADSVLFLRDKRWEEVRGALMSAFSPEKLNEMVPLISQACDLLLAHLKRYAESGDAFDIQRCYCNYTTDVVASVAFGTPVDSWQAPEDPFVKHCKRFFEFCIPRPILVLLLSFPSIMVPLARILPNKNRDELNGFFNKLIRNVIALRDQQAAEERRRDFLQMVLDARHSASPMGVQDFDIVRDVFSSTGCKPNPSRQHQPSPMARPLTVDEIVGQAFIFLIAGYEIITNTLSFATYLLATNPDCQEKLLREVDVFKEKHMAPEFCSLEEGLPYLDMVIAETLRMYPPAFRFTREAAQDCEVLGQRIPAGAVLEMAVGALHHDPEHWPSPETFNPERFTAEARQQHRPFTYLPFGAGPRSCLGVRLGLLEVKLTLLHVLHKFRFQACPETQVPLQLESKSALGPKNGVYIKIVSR

| Compound | IC50 (Thromboxane A2 receptor) | inhibition [1] |
| --- | --- | --- |
| CC(C)(C)/N=C(\NC#N)Nc1cccc(/C(=C/CCCC(=O)O)c2cccnc2)c1 | 11 nM | – |
| CCCCCNC(=O)NS(=O)(=O)c1cc([N+](=O)[O-])ccc1NC1CCCCC1 | – | 97.4% |
